Laboratory results: patent US9173892B2, “Acadesine derivatives, products and compositions including same, therapeutic uses thereof, and methods for synthesizing same” (Universite Nice Sophia Antipolis, priority 2011, dated 2015)
Read-outs that look alike come from different tables or passages of the source. Blank lines part the entries; values can stand above or below the compound they belong to.

Columns and labels:
[1] = tested on: imatinib-resistant CML K562 cells; assay: tumor growth of imatinib-resistant CML K562 cells in athymic nude mice; format: in vivo; settings: 1 mg/kg; for Mean weight of the mice on the day of sacrifice: control group 18.63, in g (unit assumed); for Mass of tumors at the end of the campaign (% vs. control): sum of tumor masses on the day of sacrifice
Method: The three compounds (86, 196 and 236) were tested at 1 mg/kg on the tumor growth of imatinib-resistant CML K562 cells in athymic nude mice. The tumors of the mice of each group are weighed on the day of sacrifice, and the sum of these masses constitutes a tumor growth index. This index is expressed as a percentage with respect to the growth of the control group (second line).

[2] = tested on: K562 cells; assay: cell viability (XTT) of imatinib-sensitive K562 cells; format: cell-based, human; settings: K562; for viability at 500 µM / IC50: Homo sapiens, XTT; for viability at 500 µM: 0.5 mM, read-out: percentage of viable cells; for IC50: dose-response 5, 10, 25 and 50 μM; for efficacy in dose-response experiment (number of viable cells): 5, 10, 25 and 50 μM, compounds effective at concentrations as low as 5 μM
Method: (§1) The K562 leukemic cell line is obtained from the pleural effusion of a patient with CML. This line is a good model for studying this disease. […] The K562 and ImaR cells are cultivated at 37° C. under 5% CO2 in an RPMI 1640 medium containing 5% fetal bovine serum and supplemented with sodium pyruvate and antibiotics (penicillin-streptomycin).
(§2) FIGS. 1 to 4 reflect the study of the cell viability.
(§3) After the addition of XTT reagent, the absorbance is measured at 490 nm.
as §3, §3
After adding XTT reagent, the absorbance is measured at 490 nm.

[3] = tested on: ImaR cells; assay: cell viability (XTT) of imatinib-resistant ImaR cells; format: cell-based, human; settings: for viability at 500 µM / IC50: Homo sapiens, XTT; for viability at 500 µM: 0.5 mM, 24 hours, read-out: percentage of viable cells; for efficacy in dose-response experiment (number of viable cells): 5, 10, 25 and 50 μM, compounds effective at concentrations as low as 5 μM; for IC50: dose-response 5, 10, 25 and 50 μM, 24 or 48 hours, Example 1 (Table 1 codes)
Method: as §1, §2, §3, §3

[4] = tested on: K562 cells; assay: flow cytometry analysis of the cell cycle, K562 cells; format: cell-based, human; settings: for proportion of cells in the G2/M phase: 24 hours, 82, 86, 112 at 2.5 μM, 15, 23, 191, 49 at 10 μM; for cells in phase G0/G1 / cells in the subG1 phase: 24 hours, imatinib 3 μM, 112 at 2.5 μM, 15, 23, 49 at 10 μM
Method: (§4) The x-axis of the graph of FIG. 9 corresponds to the quantity of DNA marked with propidium iodide while the y-axis corresponds to the number of cells. […] The nuclei are marked with propidium iodide, then the proportion of cells in the different phases of the cell cycle (subG1, G0/G1, S, G2/M) is determined.

[5] = tested on: K562 cells; assay: western blot of apoptosis and autophagy markers, K562 cells; format: cell-based, human; settings: for expression of p62/SQSTM1 / LC3 cleavage (LC3-I into LC3-II) / PARP cleavage (fragment at 85 kDa): K562, 24 hours; for expression of p62/SQSTM1 / LC3 cleavage (LC3-I into LC3-II): AICAR 1 mM; for expression of p62/SQSTM1: 82, 86, 112 at 2.5 μM, 15, 23, 191 at 10 μM; for LC3 cleavage (LC3-I into LC3-II): 82, 86 at 2.5 μM, 15, 23, 191, 49 at 10 μM; for type of programmed cell death induced: conclusion of Example 1, K562 and ImaR cells; for PARP cleavage (fragment at 85 kDa): imatinib 3 μM, 112 at 2.5 μM, 15, 23, 49 at 10 μM
Method: (§5) The cells are lyzed and 35 μg of proteins are separated by SDS-PAGE (12 or 14% polyacrylamide gel) and analyzed by western blot with antibodies specific to each of the markers.

[6] = tested on: ImaR cells; assay: flow cytometry analysis of the cell cycle, ImaR cells; format: cell-based, human; settings: for proportion of cells in the G2/M phase: 24 hours, 82, 86, 112 at 2.5 μM, 15, 23, 191, 49 at 10 μM; for cells in phase G0/G1 / cells in the subG1 phase: 24 hours, imatinib 3 μM, 112 at 2.5 μM, 15, 23, 49 at 10 μM
Method: as §4, with “nucleii” for “nuclei”

[7] = tested on: ImaR cells; assay: western blot of apoptosis and autophagy markers, ImaR cells; format: cell-based, human; settings: 24 hours; for expression of p62/SQSTM1: AICAR 1 mM, 82, 86, 112 at 2.5 μM, 15, 23, 191 at 10 μM; for LC3 cleavage (LC3-I into LC3-II): AICAR 1 mM, 82, 86 at 2.5 μM, 15, 23, 191, 49 at 10 μM; for PARP cleavage (fragment at 85 kDa): imatinib 3 μM, 112 at 2.5 μM, 15, 23, 49 at 10 μM
Method: as §5

[8] = tested on: caspase-9; assay: caspase-9 activity (Ac-LEHD-AMC) in ImaR cells; format: cell-based, human; settings: 24 hours, imatinib 3 μM, 112 2.5 μM, 15 and 23 10 μM
Method: (§6) The cells are lyzed and the caspase-9 activities are measured using 10 μg of proteins and Ac-LEHD-AMC. The fluorescence emission at 460 nm resulting from the release of AMC is then recorded.

[9] = tested on: caspase-9; assay: caspase-9 activity (Ac-LEHD-AMC) in K562 cells; format: cell-based, human; settings: for caspase-9 activity: K562, 24 hours, imatinib 3 μM, 112 2.5 μM, 15 and 23 10 μM; for pathway relaying the induced apoptosis: conclusion of Example 1, K562 and ImaR cells
Method: as §6

[10] = 48 hours, Example 2 (Table 2 codes)
[11] = 24 or 48 hours, Example 1 (Table 1 codes)

Mean weight of the mice on the day of sacrifice [1]: 20.5
Structure (SMILES): CCOC(=O)C#Cc1c(C(=O)OCC)nnn1C1OC(COC(C)=O)C(OC(C)=O)C(OC(C)=O)C1OC(C)=O [Compound 196, 1′-(4-ethoxycarbonyl-5-ethyl propiolate-[1,2,3]-triazol-1-yl)-2′,3′,4′,6′-tetra-O-acetyl-β-D-glucopyranose]
inhibition of the tumor mass [1]: around 60%
Mass of tumors at the end of the campaign (% vs. control) [1]: 42 % vs. control

Mean weight of the mice on the day of sacrifice [1]: 18.43
IC50 [2, 11]: ~2.5 µM
Structure (SMILES): CCOC(=O)c1nnn([C@@H]2O[C@H](COC(C)=O)[C@@H](OC(C)=O)[C@H]2OC(C)=O)c1-c1ccccc1 [Compound 86, 1′-(4-ethoxycarbonyl-5-phenyl-[1,2,3]-triazol-1-yl)-2′,3′,5′-tri-O-acetyl-β-D-ribofuranose]
proportion of cells in the G2/M phase [4]: increase
expression of p62/SQSTM1 [5]: increase in the expression
LC3 cleavage (LC3-I into LC3-II) [5]: cleaved
type of programmed cell death induced [5]: autophagy alone
proportion of cells in the G2/M phase [6]: increase
Mass of tumors at the end of the campaign (% vs. control) [1]: 69.6 % vs. control
efficacy in dose-response experiment (number of viable cells) [3]: particularly effective
viability at 500 µM [3]: < 10%
IC50 [3]: ~2.5 µM
viability at 500 µM ([2]; 24 hours): < 10%
efficacy in dose-response experiment (number of viable cells) [2]: particularly effective
expression of p62/SQSTM1 [7]: increase in the expression
LC3 cleavage (LC3-I into LC3-II) [7]: cleaved

IC50 [2, 11]: ~10 µM
Structure (SMILES): CCOC(=O)c1nnn([C@@H]2O[C@H](COC(C)=O)[C@@H](OC(C)=O)[C@H]2OC(C)=O)c1Cl [Compound 15, 1′-(4-ethoxycarbonyl-5-chloro-[1,2,3]-triazol-1-yl)-2′,3′,5′-tri-O-acetyl-β-D-ribofuranose]
proportion of cells in the G2/M phase [4]: increase
cells in phase G0/G1 [4]: reduction
cells in the subG1 phase [4]: very pronounced accumulation
caspase-9 activity [8]: activation
expression of p62/SQSTM1 [5]: increase in the expression
LC3 cleavage (LC3-I into LC3-II) [5]: cleaved
PARP cleavage (fragment at 85 kDa) [5]: appearance of the characteristic cleavage fragment at 85 kDa
type of programmed cell death induced [5]: combination of the two types of mechanisms
caspase-9 activity [9]: activation
pathway relaying the induced apoptosis [9]: intrinsic pathway
proportion of cells in the G2/M phase [6]: increase
cells in phase G0/G1 [6]: reduction
cells in the subG1 phase [6]: very pronounced accumulation
efficacy in dose-response experiment (number of viable cells) [3]: particularly effective
viability at 500 µM [3]: < 10%
IC50 [3]: ~10 µM
viability at 500 µM ([2]; 24 hours): < 10%
efficacy in dose-response experiment (number of viable cells) [2]: particularly effective
expression of p62/SQSTM1 [7]: increase in the expression
LC3 cleavage (LC3-I into LC3-II) [7]: cleaved
PARP cleavage (fragment at 85 kDa) [7]: appearance of the characteristic cleavage fragment at 85 kDa

IC50 [2, 10]: ~5 µM
Structure (SMILES): CCCCCCC(=O)c1c(C(=O)OCC)nnn1[C@@H]1O[C@H](COC(C)=O)[C@@H](OC(C)=O)[C@H]1OC(C)=O [Compound 30, 1′-(4-ethoxycarbonyl-5-heptanoyl-[1,2,3]-triazol-1-yl)-2′,3′,5′-tri-O-acetyl-β-D-ribofuranose]

Second part, the compound before the results:

Structure (SMILES): C#Cc1c(C(=O)OC)nnn1[C@@H]1O[C@H](CO)[C@@H](O)[C@H]1O [Compound 29, 1′-(4-methoxycarbonyl-5-ethynyl-[1,2,3]-triazol-1-yl)-β-D-ribofuranose]
viability at 500 µM [2, 10]: < 20%

Structure (SMILES): CCOC(=O)c1nnn([C@@H]2O[C@H](COC(C)=O)[C@@H](OC(C)=O)[C@H]2OC(C)=O)c1C(=O)c1ccc(C)cc1 [Compound 32, 1′-(4-ethoxycarbonyl-5-p-toluoyl-[1,2,3]-triazol-1-yl)-2′,3′,5′-tri-O-acetyl-β-D-ribofuranose]
viability at 500 µM [2, 10]: < 20%

Structure (SMILES): CCCCCCCC#Cc1c(CCCCCCC)nnn1[C@@H]1O[C@H](COC(C)=O)[C@@H](OC(C)=O)[C@H]1OC(C)=O [Compound 176, 1′-(4-heptyl-5-(non-1-yn-1-yl)-[1,2,3]-triazol-1-yl)-2′,3′,5′-tri-O-acetyl-β-D-ribofuranose]
viability at 500 µM [3]: < 10%
viability at 500 µM ([2]; 24 hours): < 10%

Structure (SMILES): COC(=O)c1nnn([C@@H]2O[C@H](CO)[C@@H](O)[C@H]2O)c1I [Compound 21, 1′-(4-methoxycarbonyl-5-iodo-[1,2,3]-triazol-1-yl)-β-D-ribofuranose]
viability at 500 µM [2, 10]: < 20%
IC50 [2, 10]: ~5 µM

Structure (SMILES): CCOC(=O)C#Cc1c(C(=O)OCC)nnn1Cc1ccc2ccccc2c1 [Compound 25]
viability at 500 µM [3]: < 10%
viability at 500 µM ([2]; 24 hours): < 10%

Structure (SMILES): CCOC(=O)c1nnn([C@@H]2O[C@H](CO)[C@H]3OC(C)(C)O[C@H]32)c1-c1cccs1 [Compound 236, 1′-(4-ethoxycarbonyl-5-(2-thienyl)-[1,2,3]-triazol-1-yl)-2′,3′-O-isopropylidene-β-D-ribofuranose]
Mean weight of the mice on the day of sacrifice [1]: 20.14
Mass of tumors at the end of the campaign (% vs. control) [1]: 60.3 % vs. control

Structure (SMILES): CCOC(=O)c1nnn(Cc2ccc3ccccc3c2)c1I [Compound 23]
viability at 500 µM [3]: < 10%
IC50 [3]: ~10 µM
viability at 500 µM ([2]; 24 hours): < 10%
IC50 [2, 11]: ~10 µM
IC50 [2, 10]: ~5 µM

Structure (SMILES): CCOC(=O)C#Cc1c(C(=O)OCC)nnn1Cc1ccc(C)cc1 [Compound 112, 1-(4-methylbenzyl)-4-ethoxycarbonyl-5-ethyl propiolate-1,2,3-triazole]
cells in phase G0/G1 [4]: reduction
cells in the subG1 phase [4]: very pronounced accumulation
caspase-9 activity [8]: activation
expression of p62/SQSTM1 [5]: increase in the expression
PARP cleavage (fragment at 85 kDa) [5]: appearance of the characteristic cleavage fragment at 85 kDa
type of programmed cell death induced [5]: apoptosis alone
caspase-9 activity [9]: activation
pathway relaying the induced apoptosis [9]: intrinsic pathway
cells in phase G0/G1 [6]: reduction
cells in the subG1 phase [6]: very pronounced accumulation
efficacy in dose-response experiment (number of viable cells) [3]: particularly effective
viability at 500 µM [3]: < 10%
IC50 [3]: ~2.5 µM
viability at 500 µM ([2]; 24 hours): < 10%
IC50 [2, 11]: ~2.5 µM
efficacy in dose-response experiment (number of viable cells) [2]: particularly effective
expression of p62/SQSTM1 [7]: increase in the expression
PARP cleavage (fragment at 85 kDa) [7]: appearance of the characteristic cleavage fragment at 85 kDa

Structure (SMILES): OC[C@H]1O[C@@H](n2nnc(-c3ccccc3)c2I)[C@H](O)[C@@H]1O [Compound 24, 1′-(4-phenyl-5-iodo-[1,2,3]-triazol-1-yl)-β-D-ribofuranose]
IC50 [2, 10]: ~5 µM
